Six molecules from PubChem BioAssay (NCI) can be followed below.

Experiment in all cases: NCI tumour cell line growth inhibition, 48 h
Test [1] has as its system ACHN renal.
Test [2] concerns DU-145 prostate.
For test [3], the system named is NCI-H522 lung.
Test [4] relates to OVCAR-4 ovarian.
Test [5] deals with BT-549 breast.
The test system of test [6] is HCT-116 colon.
Test [7] relates to SR leukemia.
In test [8] the test system is DMS 114 small cell lung.
Test [9] concerns DMS 273 small cell lung.
The test system of test [10] is KM20L2 colon.
The subject of test [11] is M19-MEL melanoma.
In test [12] the test system is P388 leukemia.
For test [13], the system named is SNB-78 CNS.
Test [14] relates to XF 498 CNS.

Structures are written as SMILES.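 Compound exposure: 48 hours, 5 concentrations, 96-well plates. Here, GI50 denotes the concentration required for 50% inhibition of growth. At the TGI there is no net growth.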

`NC(=O)c1c(NC(=O)c2ccccc2)sc2c1CCC(=O)C2`: the GI50 was 0.698 µM in test [1], 4.14 µM in test [2], 0.346 µM in [3] and 0.732 µM in [4]. For the same molecule, the TGI in [1] was 2.48 µM; in [2] it was above 100 µM; in test [3] it was 2.14 µM; in test [4] it was 2.01 µM.
`O=C1CC2(CCC(O)(c3ccc4ccccc4c3)C(C(=O)c3ccc4ccccc4c3)C2)C(=O)c2ccccc2N1` (centres undefined): the TGI in [5], in test [2], in test [6] and in test [7] was above 100 µM in each case.
For the molecule `C[n+]1c(/C=C/c2c(O)ccc3ccccc23)ccc2ccccc21`, the GI50 is 5.1 µM in test [1]; 6.76 µM in test [2]; 3.06 µM in [6]; 2.52 µM in test [3]; 3.39 µM in [4]; 1.21 µM in test [7]. The TGI was determined as 11.4 µM in test [1]; 13.9 µM in [2]; 10.3 µM in test [6]; 10.2 µM in test [3]; 10.5 µM in test [4]; 3.31 µM in test [7].
Consider `COc1cc2c(cc1OC)C(C(c1ccccc1)c1ccccc1)N(C)CC2` (centres undefined), for which the TGI in [8] was above 100 µM; in test [9], above 100 µM; in test [6] it was above 100 µM; in test [10], above 73.7 µM; in [11], above 100 µM; in test [3] it was above 100 µM. Besides, the TGI in test [4] was above 100 µM; in [12], above 100 µM; in test [13], above 100 µM; in [14], 97.8 µM.
For `C[N+](C)([O-])CCOc1cc2c(c3ccccc13)-c1ccccc1C2=O`, the TGI in [8] is 24.7 µM; in test [9] it was 43.9 µM; in test [6], above 68 µM; in test [10], above 63.5 µM; in [11], 36.2 µM; in [3] it was 26.5 µM. Besides, the TGI was 42.9 µM in test [4], above 100 µM in [12], above 91.1 µM in test [13] and 37.9 µM in test [14].
As for `O=c1oc2cc(O)ccc2c(O)c1C(c1ccccc1)c1c(O)c2ccc(O)cc2oc1=O`, the TGI in [5], in test [2], in test [6], in test [4] and in test [7] was above 100 µM in each case.
